Marks after values point to notes of the source that are not given here.
Columns and labels:
testes of a male pig = experiment: Example 3: pattern of testicular shrinkage after intratesticular injection in male pig; format: in vivo; details: 1 ml of 10% by weight solution per testis
testis = experiment: Example 2: beagle puppy injected in each testis, testes excised at 30 months; format: in vivo, beagle dog; details: 0.25 ml per testis (13.1 mg/ml zinc), dorsal cranial, injected at six months, sacrificed at 30 months; control 6.8 g
Procedure: A beagle puppy weighing 19 lbs at six months of age was injected in each testis with 0.25 ml of a chemical sterilant containing 13.1 mg/ml of zinc as zinc gluconate neutralized by 34.8 mg/ml of l-arginine with the pH adjusted to 7.0 with hydrochloric acid. The injection was into the dorsal cranial portion of the testis as could best be estimated externally.
The treated animal was sacrificed at 30 months of age when he weighed 31 lbs. The testes were excised and each weighed 3.5 g.
A control beagle weighing 18 lbs at six months was housed with the treated animal. This animal was also sacrificed at 30 months. The control dog weighed 30 lbs and each testis weighed 6.8 g. A histological section of the rete testis of the control animal was taken and a light micrograph of the section at 10× is shown in FIG. 2.

[1] = system: testes of Sprague Dawley male rats; experiment: Example 4: infertility/sterility in rats, dorsal cranial vs midline injection, histopathology of epididymides and testes; format: in vivo, rat; details: 0.1 ml 10% per testis; for infertility/sterility achieved, share of rats: two months post-injection, 10 rats
Procedure: Twenty (20) Sprague Dawley, male rats were divided into two groups of ten (10) rats per group. […] Two months post-injection, both groups were sacrificed, and all of the epididymides and testes were evaluated by histopathology.

[2] = Example 5: body homeostasis, clinical observations and testicular measurement in Beagle puppies; format: in vivo, Beagle dog; details: 25, 30 or 35 mg per testis
Procedure: (§1) Forty (40) healthy, male Beagle puppies, six months of age, were divided into the following four groups according to testicular width.
The body weight of all dogs increased.
(§2) As compared to the control placebo group, serum testosterone level at twelve (12) months post-injection had (1) decreased by 43% in the 25 mg treated group, (2) decreased by 55% in the 30 mg treated group, and (3) decreased by 52% in the 35 mg treated group.

serum testosterone = experiment: Example 5: serum testosterone level in Beagle puppies; format: in vivo, Beagle dog; details: twelve months post-injection
Procedure: as §1, §2

[3] = system: testes of male Beagle puppies; experiment: Example 5: semen analysis of Beagle puppies; format: in vivo, Beagle dog
Procedure: as §1
Semen analysis was performed on a monthly basis for […]. Semen analysis at 24 months post-injection indicated the following.

male Beagle puppies = experiment: Example 5: exposure of treated dogs to females in heat (copulation, pregnancy); format: in vivo, Beagle dog; details: for number of the ten dogs that copulated with females: each dog exposed to three females in heat
Text: as §1
Of the ten control placebo dogs, seven copulated with females and pregnancy occurred in all of the females (100% pregnancy rate). Each of the treated dogs was exposed to three different females in heat.

[4] = system: testes of male Beagle puppies; experiment: Example 5: quantitative evaluation of testis histopathology; format: in vivo, Beagle dog; details: n = 10
Procedure: as §1
Quantitative information provides the strongest evidence that control and treated tissues are either alike or different. In order to obtain the very detailed information about the testes after dorsal cranial injection, quantitative evaluation of the testes histopathology was performed in 40 dogs post-injection.

testes of male puppies = experiment: Example 6: clinical trial in 225 male puppies at five sites, semen analysis and physical examination; format: in vivo, dog
Procedure: Four hundred fifty (450) intratesticular injections were performed in the dorsal cranial area of the testes of 225 male puppies (one injection per testis; two testes per dog) at five investigational sites. The 225 puppies ranged in age from 2½ to 10 months and were of various breeds. After the necessary training, all of the investigators mastered the technique of testicular measurement and intratesticular injection (dorsal cranial). Based on the experience of these investigators in the clinical trial, all veterinarians will be able to easily use this dorsal cranial injection technique.
After at least 6 months of follow-up, semen analysis and physical examination were performed as the primary indicators of clinical trial efficacy.

[5] = system: testes of sexually mature male dogs; experiment: Example 7: semen evaluation of 53 sexually mature male dogs; format: in vivo, dog; details: six months post-injection, one of 53 dogs
Procedure: Dosage was based on testicular width according to the following table.
Semen analysis of all dogs prior to injection indicated normal fertility parameters. All of the dogs were followed for six months post-injection, and semen analysis was performed at 2 month intervals for a total of three times.

[6] = dorsal cranial injection, two months
[7] = 25 mg per testis, 24 months post-injection, n = 10
[8] = 25 mg per testis, the 10% of dogs with severe oligospermia, 24 months
[9] = Total of all six doses, n = 225

Molecule: N=C(N)NCCC[C@H](N)C(=O)O.[Zn] [zinc arginine]
- pattern of testicular shrinkage (testes of a male pig; injection at the dorsal cranial area (FIG. 5)): proportional shrinkage
- pattern of testicular shrinkage (testes of a male pig; injection at the midline (FIG. 4)): disproportional shrinkage

Molecule: zinc gluconate neutralized by arginine
- weight of each excised testis (testis): 3.5 g
- function of the testes (histopathology) [1, 6]: complete dysfunction in the testes
- sperm in the epididymides [1, 6]: no sperm were found in the epididymides
- infertility/sterility achieved, share of rats ([1]; dorsal cranial injection): 100%
- function of the testes (histopathology) ([1]; midline injection, two months): some parts of the testes were functioning
- share of epididymides in which sperm were found ([1]; midline injection, two months): 30%
- infertility/sterility achieved, share of rats ([1]; midline injection): 70%
- effect on rectal temperature, complete blood count, blood chemistries [2]: no clinical effect
- body weight ([2]; all dogs): increased
- effect on body homeostasis ([2]; dorsal cranial): None of the treatments affected body homeostasis
- testicular swelling post-injection ([2]; for one week post-injection): transient testicular swelling
- testicular measurement after the first week ([2]; p<0.0001, control placebo increased): decreased significantly
- decrease of serum testosterone level compared to control placebo (serum testosterone; 25 mg per testis): 43%
- decrease of serum testosterone level compared to control placebo (serum testosterone; 30 mg per testis): 55%
- decrease of serum testosterone level compared to control placebo (serum testosterone; 35 mg per testis): 52%
- share of dogs permanently sterilized (azoospermia or aspermia) [3, 7]: 90%
- share of dogs with severe oligospermia [3, 7]: 10%
- Concentration/ml (×10^6) [3, 8]: 0.01 ×10^6/ml
- Motility [3, 8]: 1.00%
- Normal Sperm [3, 8]: 6.70%
- Volume of Ejaculation [3, 8]: 0.74 mL
- share of dogs permanently sterilized (azoospermia or aspermia) ([3]; 30 mg per testis, 24 months post-injection, n = 10): 100%
- share of dogs permanently sterilized (azoospermia or aspermia) ([3]; 35 mg per testis, 24 months post-injection, n = 10): 100%
- overall outcome of one intratesticular injection ([3]; dorsal cranial area, male puppies): permanent sterilization
- number of the ten dogs that copulated with females (male Beagle puppies; 25 mg per testis): Two
- number of the ten dogs that copulated with females (male Beagle puppies; 30 mg per testis): five
- number of the ten dogs that copulated with females (male Beagle puppies; 35 mg per testis): four
- pregnancy of females after copulation (male Beagle puppies; 25, 30 and 35 mg per testis, control placebo 100% pregnancy rate): no pregnancy occurred
- Basement Membrane, Average ([4]; 25 mg per testis): 4.80 μm
- Basement Membrane, Left ([4]; 25 mg per testis): 5.00 μm
- Basement Membrane, Right ([4]; 25 mg per testis): 4.59 μm
- Diameter of Seminiferous Tubule, Average ([4]; 25 mg per testis): 124.00 μm
- Diameter of Seminiferous Tubule, Left ([4]; 25 mg per testis): 116.0 μm
- Diameter of Seminiferous Tubule, Right ([4]; 25 mg per testis): 132.0 μm
- Height of Germinal Epithelium, Average ([4]; 25 mg per testis): 14.10 μm
- Height of Germinal Epithelium, Left ([4]; 25 mg per testis): 11.8 μm
- Height of Germinal Epithelium, Right ([4]; 25 mg per testis): 16.4 μm
- Basement Membrane, Average ([4]; 30 mg per testis): 5.53 μm
- Basement Membrane, Left ([4]; 30 mg per testis): 5.50 μm
- Basement Membrane, Right ([4]; 30 mg per testis): 5.57 μm
- Diameter of Seminiferous Tubule, Average ([4]; 30 mg per testis): 113.75 μm
- Diameter of Seminiferous Tubule, Left ([4]; 30 mg per testis): 115.1 μm
- Diameter of Seminiferous Tubule, Right ([4]; 30 mg per testis): 112.4 μm
- Height of Germinal Epithelium, Average ([4]; 30 mg per testis): 7.20 μm
- Height of Germinal Epithelium, Left ([4]; 30 mg per testis): 5.5 μm
- Height of Germinal Epithelium, Right ([4]; 30 mg per testis): 8.9 μm
- Basement Membrane, Average ([4]; 35 mg per testis): 6.00 μm
- Basement Membrane, Left ([4]; 35 mg per testis): 6.04 μm
- Basement Membrane, Right ([4]; 35 mg per testis): 5.96 μm
- Diameter of Seminiferous Tubule, Average ([4]; 35 mg per testis): 124.05 μm
- Diameter of Seminiferous Tubule, Left ([4]; 35 mg per testis): 124.8 μm
- Diameter of Seminiferous Tubule, Right ([4]; 35 mg per testis): 123.3 μm
- Height of Germinal Epithelium, Average ([4]; 35 mg per testis): 10.30 μm
- Height of Germinal Epithelium, Left ([4]; 35 mg per testis): 9.6 μm
- Height of Germinal Epithelium, Right ([4]; 35 mg per testis): 11.0 μm
- Aspermia (No Semen Ejaculated), number of puppies (testes of male puppies; [9]): 174
- Azoospermia (No Sperm in Ejaculate), number of puppies (testes of male puppies; [9]): 48
- Necrospermia (Sperm in Ejaculate Are Dead or Motionless), number of puppies (testes of male puppies; [9]): 1
- Oligospermia (Less than 20 Million Sperm per ml), number of puppies (testes of male puppies; [9]): 1
- Sperm in Ejaculate Are Motile, number of puppies (testes of male puppies; [9]): 1
- Aspermia (No Semen Ejaculated), number of puppies (testes of male puppies; dose per testis 0.2 ml): 59
- Azoospermia (No Sperm in Ejaculate), number of puppies (testes of male puppies; dose per testis 0.2 ml): 12
- Necrospermia (Sperm in Ejaculate Are Dead or Motionless), number of puppies (testes of male puppies; dose per testis 0.2 ml): 0
- Oligospermia (Less than 20 Million Sperm per ml), number of puppies (testes of male puppies; dose per testis 0.2 ml): 1
- Sperm in Ejaculate Are Motile, number of puppies (testes of male puppies; dose per testis 0.2 ml): 0
- Aspermia (No Semen Ejaculated), number of puppies (testes of male puppies; dose per testis 0.3 ml): 27
- Azoospermia (No Sperm in Ejaculate), number of puppies (testes of male puppies; dose per testis 0.3 ml): 5
- Necrospermia (Sperm in Ejaculate Are Dead or Motionless), number of puppies (testes of male puppies; dose per testis 0.3 ml): 0
- Oligospermia (Less than 20 Million Sperm per ml), number of puppies (testes of male puppies; dose per testis 0.3 ml): 0
- Sperm in Ejaculate Are Motile, number of puppies (testes of male puppies; dose per testis 0.3 ml): 0
- Aspermia (No Semen Ejaculated), number of puppies (testes of male puppies; dose per testis 0.5 ml): 21
- Azoospermia (No Sperm in Ejaculate), number of puppies (testes of male puppies; dose per testis 0.5 ml): 7
- Necrospermia (Sperm in Ejaculate Are Dead or Motionless), number of puppies (testes of male puppies; dose per testis 0.5 ml): 0
- Oligospermia (Less than 20 Million Sperm per ml), number of puppies (testes of male puppies; dose per testis 0.5 ml): 0
- Sperm in Ejaculate Are Motile, number of puppies (testes of male puppies; dose per testis 0.5 ml): 1*
- Aspermia (No Semen Ejaculated), number of puppies (testes of male puppies; dose per testis 0.7 ml): 30
- Azoospermia (No Sperm in Ejaculate), number of puppies (testes of male puppies; dose per testis 0.7 ml): 4
- Necrospermia (Sperm in Ejaculate Are Dead or Motionless), number of puppies (testes of male puppies; dose per testis 0.7 ml): 0
- Oligospermia (Less than 20 Million Sperm per ml), number of puppies (testes of male puppies; dose per testis 0.7 ml): 0
- Sperm in Ejaculate Are Motile, number of puppies (testes of male puppies; dose per testis 0.7 ml): 0
- Aspermia (No Semen Ejaculated), number of puppies (testes of male puppies; dose per testis 0.8 ml): 19
- Azoospermia (No Sperm in Ejaculate), number of puppies (testes of male puppies; dose per testis 0.8 ml): 4
- Necrospermia (Sperm in Ejaculate Are Dead or Motionless), number of puppies (testes of male puppies; dose per testis 0.8 ml): 1
- Oligospermia (Less than 20 Million Sperm per ml), number of puppies (testes of male puppies; dose per testis 0.8 ml): 0
- Sperm in Ejaculate Are Motile, number of puppies (testes of male puppies; dose per testis 0.8 ml): 0
- Aspermia (No Semen Ejaculated), number of puppies (testes of male puppies; dose per testis 1.0 ml): 18
- Azoospermia (No Sperm in Ejaculate), number of puppies (testes of male puppies; dose per testis 1.0 ml): 16
- Necrospermia (Sperm in Ejaculate Are Dead or Motionless), number of puppies (testes of male puppies; dose per testis 1.0 ml): 0
- Oligospermia (Less than 20 Million Sperm per ml), number of puppies (testes of male puppies; dose per testis 1.0 ml): 0
- Sperm in Ejaculate Are Motile, number of puppies (testes of male puppies; dose per testis 1.0 ml): 0
- efficacy (infertility/sterility) (testes of male puppies; six different doses, 225 puppies, at least 6 months of follow-up): 99.6%
- number of puppies (of 225) in which infertility/sterility was achieved (testes of male puppies; six different doses, dorsal cranial, at least 6 months of follow-up): 224
- Sperm Concentration of the dog that stayed normal [5]: Normal 70 million/ml
